In data set [1] the test system is MV4-11 cell Bab/c nude mouse tumor model. Description: In vivo tumor growth inhibition experiment. To be noted: for effect on body weight of nude mice: compared with the solvent control group. As to the method:
Xenotransplantation in immunodeficient mice is an effective model for testing in vivo antitumor activity of compounds in animals. Bab/c immunodeficient mice are one of the most commonly used tumor cell xenografts. […] Log-phase MV4-11 cells were collected in a 50 ml of centrifuge tube (Corning), centrifuged at 1,700 rpm for 3 minutes, and the supernatant was discarded. Cells were suspended in a 50 ml 1×RPMI 1640 serum-free medium, and centrifuged, the supernatant was discarded and resuspension was performed. The cells were counted (Countess® Automated Cell Counting Apparatus, Invitrogen), prepared into […], placed on ice, and inoculated subcutaneously with 10×10^6 (0.2 ml) to the right back of 6-8-week female Bab/c nude mice (about 20 g in weight) (purchased from Shanghai Sippr-BK Experimental Animal Co., Ltd., Animal Center of Shanghai University of Traditional Chinese Medicine, approved by Ethical Committee of Shanghai University of Traditional Chinese Medicine). When the tumor grew to a size of 100-200 mm^3, animals were randomly grouped and earmarked and weighed. The treatment group consisted of 3 to 6 nude mice in each group. Drugs were prepared into different concentrations of milky suspension with a solvent PTP solution (30% polyethylene glycol 400, 0.5% Tween-80, 2.5% propylene glycol). Animals were given by oral gavage continuously at a concentration of 0.1 ml/10 g body weight, with a dose range of 0.1-200 mg/kg (the purity of the test compound of the present invention was 99% or more, and the proportion of single impurity was not more than 0.1%). In the control group, 3 to 6 nude mice in each group were given the same volume (0.1 ml/10 g body weight) of solvent PTP solution, and the tumors were measured 3 to 4 times per week. When the average tumor volume in the control group reached 1500 mm^3, or on the 28th day of administration, the experiment ended, then the tumor was weighed and subjected to molecular pathology assay.
The tumor volume was calculated as V=½a×b^2, where a is the length and b is the width. The relative tumor volume (RTV) was calculated based on the measured results and the formula was RTV=Vt/V0, where V0 is the measured tumor volume when administered in divided cages (i.e., do), and Vt is the tumor volume at each measurement.

The nature of the next data set: Solubility test. In kind it is physicochemical. The settings on record: in water at 25° C.±2° C. Summed up:
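Fine powder added to water at 25° C.±2° C., shaken vigorously 30 s every 5 min for 30 min; dissolution judged by absence of visible particles. Classed by water volume per 1 g: 1-10 ml readily soluble, 10-30 soluble, 30-100 slightly, 100-1,000 sparingly, not dissolved in 10,000 ml insoluble.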

[2] abbreviates: drug dose 2.5 mg/kg, 15th day of administration.

This note sets out measurements from US10647680B2, “Urea compound, preparation method therefor and medical use thereof” (Ancureall Pharmaceutical (Shanghai) Co., Ltd., priority 2016, dated 2020).

On to `CC(C)(C)c1cc(NC(=O)Nc2ccc(-n3cnc4cc(OCCN5CCOCC5)ccc43)cc2)no1` [Compound 16, 1-(5-tert-butyl-isoxazol-3-yl)-3-{4-[5-(2-morpholin-4-yl-ethoxyl)-benzimidazol-1-yl]-phenyl}-urea], for which the “Tumor Inhibition Rate (%)” value in data set [1] (Dose 2.5 mg/kg, Day 6) came out at 82.4%; in data set [1] (Dose 2.5 mg/kg, Day 10) it was 96.8%; in data set [1] (Dose 2.5 mg/kg, Day 15), 100%; in data set [1] (Dose 2.5 mg/kg, Day 20), 100%. In addition, the tumor outcome in data set [1] (setting [2]) was “tumor disappears completely”. For the same molecule, in data set [1] (drug dose 2.5 mg/kg), the “effect on body weight of nude mice” value is “no significant effect”. For the same molecule, the Solubility result in “Solubility test” (listed as 16 Free base) was “insoluble (“nearly insoluble or insoluble” means that 1 g of the test sample could not be completely dissolved in 10,000 ml of water)”.

Regarding `CC(C)(C)c1cc(NC(=O)Nc2ccc(-n3cnc4ccccc43)cc2)[nH]n1` [Compound 68, 1-(4-benzimidazol-1-yl-phenyl)-3-(5-tert-butyl-2H-pyrazol-3-yl)-urea], the “Tumor Inhibition Rate (%)” value is reported as 14.6% in data set [1] (Dose 2.5 mg/kg, Day 6); 16.2% in data set [1] (Dose 2.5 mg/kg, Day 10); 17.8% in data set [1] (Dose 2.5 mg/kg, Day 15); 37.5% in data set [1] (Dose 2.5 mg/kg, Day 20); 35.3% in data set [1] (Dose 2.5 mg/kg, Day 28); 67.9% in data set [1] (Dose 5 mg/kg, Day 6). Besides, the “Tumor Inhibition Rate (%)” value in data set [1] (Dose 5 mg/kg, Day 10) stood at 71.6%; in data set [1] (Dose 5 mg/kg, Day 15), 58.5%; in data set [1] (Dose 5 mg/kg, Day 20), 50.1%; in data set [1] (Dose 5 mg/kg, Day 28) it was 62.5%; in data set [1] (Dose 10 mg/kg, Day 6), 68.9%; in data set [1] (Dose 10 mg/kg, Day 10), 81.7%. In addition, the “Tumor Inhibition Rate (%)” value in data set [1] (Dose 10 mg/kg, Day 15) is 90.2%; in data set [1] (Dose 10 mg/kg, Day 20), 94.8%; in data set [1] (Dose 10 mg/kg, Day 28), 98.7%; in data set [1] (Dose 25 mg/kg, Day 6), 86.0%; in data set [1] (Dose 25 mg/kg, Day 10), 92.5%; in data set [1] (Dose 25 mg/kg, Day 15), 93.4%. Further, the “Tumor Inhibition Rate (%)” value turned out to be 96.7% in data set [1] (Dose 25 mg/kg, Day 20); 100.0% in data set [1] (Dose 25 mg/kg, Day 28); 92.8% in data set [1] (Dose 50 mg/kg, Day 6); 98.7% in data set [1] (Dose 50 mg/kg, Day 10); 100.0% in data set [1] (Dose 50 mg/kg, Day 15); 94.2% in data set [1] (Dose 100 mg/kg, Day 6). Moreover, the “Tumor Inhibition Rate (%)” value is reported as 100.0% in data set [1] (Dose 100 mg/kg, Day 10); 100.0% in data set [1] (Dose 100 mg/kg, Day 15); 98.9% in data set [1] (Dose 200 mg/kg, Day 6); 100.0% in data set [1] (Dose 200 mg/kg, Day 10); 100.0% in data set [1] (Dose 200 mg/kg, Day 15). In addition, the “effect on body weight of nude mice” value in data set [1] (dose ≤25 mg/kg) was “no significant effect”. Further, the “inhibition rate of tumor growth” value in data set [1] (dose ≥25 mg/kg, oral gavage, 6th day after administration) was “more than 80%”. Besides, the tumor outcome in data set [1] (dose ≥25 mg/kg, oral gavage, 28th day) is on record as “tumor disappears completely”.

As for `COc1ccc2c(c1)ncn2-c1ccc(NC(=O)Nc2cc(C(C)(C)C)n[nH]2)cc1` [Compound 71, 1-(5-tert-butyl-2H-pyrazol-3-yl)-3-[4-(5-methoxyl-benzimidazol-1-yl)-phenyl]-urea], the “Tumor Inhibition Rate (%)” value in data set [1] (Dose 0.5 mg/kg, Day 6) came to 37.2%; in data set [1] (Dose 0.5 mg/kg, Day 10), 34.5%; in data set [1] (Dose 0.5 mg/kg, Day 15), 32.6%; in data set [1] (Dose 0.5 mg/kg, Day 20), 36.9%; in data set [1] (Dose 0.5 mg/kg, Day 28), 37.3%; in data set [1] (Dose 1 mg/kg, Day 6), 62.2%. Besides, the “Tumor Inhibition Rate (%)” value was 64.5% in data set [1] (Dose 1 mg/kg, Day 10); 69.6% in data set [1] (Dose 1 mg/kg, Day 15); 65.4% in data set [1] (Dose 1 mg/kg, Day 20); 66.6% in data set [1] (Dose 1 mg/kg, Day 28); 63.7% in data set [1] (Dose 2.5 mg/kg, Day 6); 76.8% in data set [1] (Dose 2.5 mg/kg, Day 10). For the same molecule, the “Tumor Inhibition Rate (%)” value in data set [1] (Dose 2.5 mg/kg, Day 15) was determined as 77.9%; in data set [1] (Dose 2.5 mg/kg, Day 20), 80.5%; in data set [1] (Dose 2.5 mg/kg, Day 28), 83.8%; in data set [1] (Dose 5 mg/kg, Day 6) it was 84.5%; in data set [1] (Dose 5 mg/kg, Day 10), 94.3%; in data set [1] (Dose 5 mg/kg, Day 15), 98.8%. For the same molecule, the “Tumor Inhibition Rate (%)” value was 100.0% in data set [1] (Dose 5 mg/kg, Day 20); 100% in data set [1] (Dose 5 mg/kg, Day 28); 87.2% in data set [1] (Dose 10 mg/kg, Day 6); 96.4% in data set [1] (Dose 10 mg/kg, Day 10); 99.8% in data set [1] (Dose 10 mg/kg, Day 15); 100% in data set [1] (Dose 10 mg/kg, Day 20). The “Tumor Inhibition Rate (%)” value in data set [1] (Dose 10 mg/kg, Day 28) was found to be 100%; in data set [1] (Dose 25 mg/kg, Day 6), 90.0%; in data set [1] (Dose 25 mg/kg, Day 10) it was 98.0%; in data set [1] (Dose 25 mg/kg, Day 15) it was 100.0%; in data set [1] (Dose 25 mg/kg, Day 20), 100.0%; in data set [1] (Dose 25 mg/kg, Day 28), 100%. For the same molecule, the “Tumor Inhibition Rate (%)” value in data set [1] (Dose 50 mg/kg, Day 6) was 91.6%; in data set [1] (Dose 50 mg/kg, Day 10), 99.0%; in data set [1] (Dose 50 mg/kg, Day 15), 100.0%; in data set [1] (Dose 200 mg/kg, Day 6), 93.1%; in data set [1] (Dose 200 mg/kg, Day 10), 100.0%; in data set [1] (Dose 200 mg/kg, Day 15), 100.0%. Also, the “tumor growth inhibitory activity compared with compound 68” value in data set [1] (MV4-11 xenograft) was “stronger tumor growth inhibitory activity”. The “tumor growth inhibitory activity” value in data set [1] (dose of 1 to 2.5 mg/kg, oral gavage) was “obvious tumor growth inhibitory activity”. The “effect on body weight of nude mice” value in data set [1] (dose ≤25 mg/kg) is listed as “no significant effect”. The Solubility entry in “Solubility test” (listed as 71 Free base) is “insoluble (“nearly insoluble or insoluble” means that 1 g of the test sample could not be completely dissolved in 10,000 ml of water)”.

For `COCCOc1ccc2c(c1)ncn2-c1ccc(NC(=O)Nc2cc(C(C)(C)C)n[nH]2)cc1` [Compound 77, 1-(5-tert-butyl-2H-pyrazol-3-yl)-3-{4-[5-(2-methoxyl-ethoxyl)-benzimidazol-1-yl]-phenyl}-urea], the “Tumor Inhibition Rate (%)” value in data set [1] (Dose 2.5 mg/kg, Day 6) was 79.2%; in data set [1] (Dose 2.5 mg/kg, Day 10), 93.2%; in data set [1] (Dose 2.5 mg/kg, Day 15), 100%; in data set [1] (Dose 2.5 mg/kg, Day 20), 100%. Moreover, the tumor outcome in data set [1] (setting [2]) is recorded as “tumor disappears completely”. The “effect on body weight of nude mice” value in data set [1] (drug dose 2.5 mg/kg) is “no significant effect”. Moreover, the Solubility result in the data set “Solubility test” (listed as 77 Free base) is on record as “insoluble (“nearly insoluble or insoluble” means that 1 g of the test sample could not be completely dissolved in 10,000 ml of water)”.
